Source: paper PMC3681555, “PPARγ as a sensor of lipase activity and a target for the lipase inhibitor orlistat” (Lipids in Health and Disease, 2013)

Key:
PPARγ [1] = target: T1, PPARγ (Homo sapiens, UniProt P37231); experiment: competitive fluorescence polarization (PolarScreen PPARγ green kit); LC-MS shows no covalent adduct; type: binding
T1 construct: gene PPARG
T1 sequence (P37231 235-505 limits assumed): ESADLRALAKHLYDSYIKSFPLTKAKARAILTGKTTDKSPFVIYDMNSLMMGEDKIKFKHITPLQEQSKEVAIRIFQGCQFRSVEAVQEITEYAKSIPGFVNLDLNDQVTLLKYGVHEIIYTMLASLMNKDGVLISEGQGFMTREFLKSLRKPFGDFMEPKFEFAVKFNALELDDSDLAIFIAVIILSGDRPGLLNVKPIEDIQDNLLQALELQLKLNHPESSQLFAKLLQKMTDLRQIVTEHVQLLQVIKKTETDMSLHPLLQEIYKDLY

PPARγ [2] = target: T1, PPARγ; experiment: intact-protein LC-ESI-MS, covalent control (data not shown); type: binding

SMILES | IC50 (PPARγ [1]) | intact-protein LC-ESI-MS, covalent control (data not shown) (PPARγ [2])
CCCCCCCCCCC[C@@H](C[C@@H]1OC(=O)[C@H]1CCCCCC)OC(=O)[C@H](CC(C)C)NC=O [Orlistat] | 2840 nM | 
O=C(Nc1ccccc1)c1cc([N+](=O)[O-])ccc1Cl [GW9662] |  | Dithio-bis (2-nitrobenzoic acid) and GW9662, were also confirmed bind to PPARγ irreversibly (data not shown)
